Measured values taken from patent US8367668B2, “Pyridazinone derivatives” (Merck Patent Gesellschaft mit Beschränkter Haftung, priority 2007, dated 2013).

What follows are compounds tested against T1, Met kinase (Homo sapiens, UniProt P08581) (assay: Met kinase inhibition (enzyme assay), flashplate method).
T1 construct: 6His (N); purchased Upstate 14-526; host or cells: Sf21 insect cells (S. frugiperda), baculovirus
Assay type: biochemical
Description: Measurement of Met Kinase Activity
According to the manufacturer's data (Met, active, upstate, catalogue No. 14-526), Met kinase is expressed for the purposes of protein production in insect cells (Sf21; S. frugiperda) and subsequent affinity-chromatographic purification as “N-terminal 6His-tagged” recombinant human protein in a baculovirus expression vector.
The kinase activity can be measured using various available measurement systems. In the scintillation proximity method (Sorg et al., J. of Biomolecular Screening, 2002, 7, 11-19), the flashplate method or the filter binding test, the radioactive phosphorylation of a protein or peptide as substrate is measured using radioactively labelled ATP (^32P-ATP, ^33P-ATP). In the case of the presence of an inhibitory compound, a reduced radioactive signal, or none at all, can be detected. Furthermore, homogeneous time-resolved fluorescence resonance energy transfer (HTR-FRET) and fluoroescence polarisation (FP) technologies can be used as assay methods (Sills et al., J. of Biomolecular Screening, 2002, 191-214).
Flashplate Method (Met Kinase)
The test plates used are 96-well Flashplate® microtitre plates from Perkin Elmer (Cat. No. SMP200). The components of the kinase reaction described below are pipetted into the assay plate. The Met kinase and the substrate poly Ala-Glu-Lys-Tyr, (pAGLT, 6:2:5:1), are incubated for 3 hrs at room temperature with radioactively labelled ^33P-ATP in the presence and absence of test substances in a total volume of 100 μl. The reaction is terminated using 150 μl of a 60 mM EDTA solution. After incubation for a further 30 min at room temperature, the supernatants are filtered off with suction, and the wells are washed three times with 200 μl of 0.9% NaCl solution each time. The measurement of the bound radioactivity is carried out by means of a scintillation measuring instrument (Topcount NXT, Perkin-Elmer).
The full value used is the inhibitor-free kinase reaction. This should be approximately in the range 6000-9000 cpm. The pharmacological zero value used is staurosporin in a final concentration of 0.1 mM. The inhibitory values (IC50) are determined using the RS1_MTS program.
Kinase reaction conditions per well: • 30 μl of assay buffer • 10 μl of substance to be tested in assay buffer with 10% of DMSO • 10 μl of ATP (final concentration 1 μM cold, 0.35 μCi of ^33P-ATP) • 50 μl of Met kinase/substrate mixture in assay buffer; • (10 ng of enzyme/well, 50 ng of pAGLT/well)
50 mM HEPES • 3 mM magnesium chloride • 3 μM sodium orthovanadate • 3 mM manganese(II) chloride • 1 mM dithiothreitol (DTT)
pH=7.5 (to be set using sodium hydroxide)
60 mM Titriplex III (EDTA)
Met kinase: Upstate, Cat. No. 14-526, Stock 1 μg/10 μl; spec. activity 954 U/mg;
Poly-Ala-Glu-Lys-Tyr, 6:2:5:1: Sigma Cat. No. P1152
Pharmacological Data Met Kinase Inhibitions (Enzyme Assay)

T1 sequence (P08581 974-1390 limits assumed): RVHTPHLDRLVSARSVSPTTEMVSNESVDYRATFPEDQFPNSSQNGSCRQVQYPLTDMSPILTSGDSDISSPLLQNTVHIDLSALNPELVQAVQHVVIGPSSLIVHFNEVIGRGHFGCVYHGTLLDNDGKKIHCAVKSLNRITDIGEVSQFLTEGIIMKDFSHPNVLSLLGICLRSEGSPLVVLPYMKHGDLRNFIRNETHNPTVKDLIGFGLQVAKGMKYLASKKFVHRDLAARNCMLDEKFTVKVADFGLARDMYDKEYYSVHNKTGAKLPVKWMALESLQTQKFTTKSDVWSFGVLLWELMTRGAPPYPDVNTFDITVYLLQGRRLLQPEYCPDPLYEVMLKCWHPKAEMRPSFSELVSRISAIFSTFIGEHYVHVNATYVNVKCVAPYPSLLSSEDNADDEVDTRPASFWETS

IC50, 0.01 to 1 µM:
CCOC(=O)Nc1cccc(Cn2nc(-c3cccc(C(=O)NCCCN(C)C)c3)ccc2=O)c1 [A47]
CCOC(=O)Nc1cccc(Cn2nc(-c3cccc(C(=O)NCCN(C)C)c3)ccc2=O)c1 [A48]
CCOC(=O)Nc1cccc(Cn2nc(-c3cccc(C(=O)NCCO)c3)ccc2=O)c1 [A49]
CCOC(=O)Nc1cccc(Cn2nc(-c3cccc(C(=O)NCCOC)c3)ccc2=O)c1 [A50]
CCOC(=O)Nc1cccc(Cn2nc(-c3cccc(C(=O)NCCCOC)c3)ccc2=O)c1 [A51]
CCOC(=O)Nc1cccc(Cn2nc(-c3cccc(C(=O)NCCCO)c3)ccc2=O)c1 [A52]
CCOC(=O)Nc1cccc(Cn2nc(-c3cccc(C(=O)NCCCCO)c3)ccc2=O)c1 [A53]
CCOC(=O)Nc1cccc(Cn2nc(-c3ccc(CC(=O)NCCCCNC(=O)OC(C)(C)C)cc3)ccc2=O)c1 [A54, ethyl[3-(3-{4-[(4-tert-butoxycarbonylaminobutyl-carbamoyl)methyl]phenyl}-6-oxo-6H-pyridazin-1-ylmethyl)phenyl]-carbamate]
CCOC(=O)Nc1cccc(Cn2nc(-c3ccc(CC(=O)NCCNC(=O)OC(C)(C)C)cc3)ccc2=O)c1 [A55]
CCOC(=O)Nc1cccc(Cn2nc(-c3ccc(CC(=O)NCCCCN(C)C)cc3)ccc2=O)c1 [A56]
CCOC(=O)Nc1cccc(Cn2nc(-c3ccc(CC(N)=O)cc3)ccc2=O)c1 [A57]
CCOC(=O)Nc1cccc(Cn2nc(-c3cccc(CC(=O)NCCCNC(=O)OC(C)(C)C)c3)ccc2=O)c1 [A61]
CCOC(=O)Nc1cccc(Cn2nc(-c3cccc(CC(=O)NCCNC(=O)OC(C)(C)C)c3)ccc2=O)c1 [A62]
CCOC(=O)Nc1cccc(Cn2nc(-c3cccc(CC(=O)NCCCCN(C)C)c3)ccc2=O)c1 [A63]
CCOC(=O)Nc1cccc(Cn2nc(-c3cccc(CC(=O)NCCCN(C)C)c3)ccc2=O)c1 [A64]
CCOC(=O)Nc1cccc(Cn2nc(-c3cccc(CC(=O)NCCN(C)C)c3)ccc2=O)c1 [A65]
CCOC(=O)Nc1cccc(Cn2nc(-c3cccc(CC(=O)NCCCO)c3)ccc2=O)c1 [A66]
CCOC(=O)Nc1cccc(Cn2nc(-c3cccc(CC(=O)N(C)CCO)c3)ccc2=O)c1 [A67]
CCOC(=O)Nc1cccc(Cn2nc(-c3cccc(CC(=O)NCCOC)c3)ccc2=O)c1 [A68]
CCOC(=O)Nc1cccc(Cn2nc(-c3cccc(CC(N)=O)c3)ccc2=O)c1 [A69]
CCOC(=O)Nc1cccc(Cn2nc(-c3cccc(CC(=O)NCCCOC)c3)ccc2=O)c1 [A70]
CCOC(=O)Nc1cccc(Cn2nc(-c3cccc(CC(=O)NCCCCO)c3)ccc2=O)c1 [A71]
CCOC(=O)Nc1cccc(Cn2nc(-c3cccc(CC(=O)NCCO)c3)ccc2=O)c1 [A72]
CCOC(=O)Nc1cccc(Cn2nc(-c3ccc(CNC(=O)CNC(C)=O)cc3)ccc2=O)c1 [A75, ethyl[3-(3-{4-[(2-acetylaminoacetylamino)methyl]phenyl}-6-oxo-6H-pyridazin-1-ylmethyl)phenyl]carbamate]
CCOC(=O)Nc1cccc(Cn2nc(-c3ccc(CNC(=O)Cn4ccccc4=O)cc3)ccc2=O)c1 [A76]
CCOC(=O)Nc1cccc(Cn2nc(-c3ccc(CNC(=O)Cc4nnn[nH]4)cc3)ccc2=O)c1 [A77]
CCOC(=O)Nc1cccc(Cn2nc(-c3ccc(CNC(=O)CCNC=O)cc3)ccc2=O)c1 [A78]
CCOC(=O)Nc1cccc(Cn2nc(-c3ccc(CNC(=O)Cn4cnnn4)cc3)ccc2=O)c1 [A79]
CCOC(=O)Nc1cccc(Cn2nc(-c3ccc(CNC(=O)CN(C)C)cc3)ccc2=O)c1 [A80]
CCOC(=O)Nc1cccc(Cn2nc(-c3ccc(CNC(=O)COC)cc3)ccc2=O)c1 [A81]
CCOC(=O)Nc1cccc(Cn2nc(-c3ccc(CNC(=O)CN4CCOCC4)cc3)ccc2=O)c1 [A82]
CCOC(=O)Nc1cccc(Cn2nc(-c3ccc(CNC(=O)CCN(C)C)cc3)ccc2=O)c1 [A83]
CCOC(=O)Nc1cccc(Cn2nc(-c3ccc(CNC(=O)CCOC)cc3)ccc2=O)c1 [A84]
CCOC(=O)Nc1cccc(Cn2nc(-c3ccc(CNC(=O)CO)cc3)ccc2=O)c1 [A85]
CCOC(=O)Nc1cccc(Cn2nc(-c3ccc(CNC(=O)CN4CCN(C(=O)OC(C)(C)C)CC4)cc3)ccc2=O)c1 [A86]
CCOC(=O)Nc1cccc(Cn2nc(-c3ccc(CNC(=O)CCN4CCCCC4)cc3)ccc2=O)c1 [A87]
CCOC(=O)Nc1cccc(Cn2nc(-c3cccc(CNC(=O)CNC(C)=O)c3)ccc2=O)c1 [A93]
CCOC(=O)Nc1cccc(Cn2nc(-c3cccc(CNC(=O)Cn4ccccc4=O)c3)ccc2=O)c1 [A94]
CCOC(=O)Nc1cccc(Cn2nc(-c3cccc(CNC(=O)Cn4cnnn4)c3)ccc2=O)c1 [A95]
CCOC(=O)Nc1cccc(Cn2nc(-c3cccc(CNC(=O)Cc4nnn[nH]4)c3)ccc2=O)c1 [A96]
CCOC(=O)Nc1cccc(Cn2nc(-c3cccc(CNC(=O)CNC(=O)OC(C)(C)C)c3)ccc2=O)c1 [A97]
CCOC(=O)Nc1cccc(Cn2nc(-c3cccc(CNC(=O)CN4CCOCC4)c3)ccc2=O)c1 [A98]
CCOC(=O)Nc1cccc(Cn2nc(-c3cccc(CNC(=O)COC)c3)ccc2=O)c1 [A99]
CCOC(=O)Nc1cccc(Cn2nc(-c3cccc(CNC(=O)CCOC)c3)ccc2=O)c1 [A100]
CCOC(=O)Nc1cccc(Cn2nc(-c3cccc(CNC(=O)CO)c3)ccc2=O)c1 [A101]
CCOC(=O)Nc1cccc(Cn2nc(-c3cccc(CNC(=O)CN(C)C)c3)ccc2=O)c1 [A102]
CCOC(=O)Nc1cccc(Cn2nc(-c3cccc(CNC(=O)CCN(C)C)c3)ccc2=O)c1 [A103]
CCOC(=O)Nc1cccc(Cn2nc(-c3cccc(CNC(=O)CCNC=O)c3)ccc2=O)c1 [A104]
CCOC(=O)Nc1cccc(Cn2nc(-c3cccc(CNC(=O)CCO)c3)ccc2=O)c1 [A105]
CCOC(=O)Nc1cccc(Cn2nc(-c3cccc(CNC(=O)CN4CCN(C)CC4)c3)ccc2=O)c1 [A106]
CCOC(=O)Nc1cccc(Cn2nc(-c3cccc(CNC(=O)CCN(CC)CC)c3)ccc2=O)c1 [A107]
CCOC(=O)Nc1cccc(Cn2nc(-c3cccc(CNC(=O)CCN4CCN(C(=O)OC(C)(C)C)CC4)c3)ccc2=O)c1 [A108]
CCOC(=O)Nc1cccc(Cn2nc(-c3cccc(CNC(=O)CCN4CCCCC4)c3)ccc2=O)c1 [A109]
CCOC(=O)Nc1cccc(Cn2nc(-c3cccc(CNC(=O)CN4CCCCC4)c3)ccc2=O)c1 [A110]
CCOC(=O)Nc1cccc(Cn2nc(-c3cccc(CO)c3)ccc2=O)c1 [A122, ethyl{3-[3-(3-hydroxymethylphenyl)-6-oxo-6H-pyridazin-1-ylmethyl]phenyl}carbamate]
CCOC(=O)Nc1cccc(Cn2nc(-c3ccc(CO)cc3)ccc2=O)c1 [A123, ethyl{3-[3-(4-hydroxymethylphenyl)-6-oxo-6H-pyridazin-1-ylmethyl]phenyl}carbamate]
CCOC(=O)Nc1cccc(Cn2nc(-c3ccc(C(=O)NCCCCN)cc3)ccc2=O)c1 [A129, ethyl(3-{3-[4-(4-aminobutylcarbamoyl)phenyl]-6-oxo-6H-pyridazin-1-ylmethyl}phenyl)carbamate]
CCOC(=O)Nc1cccc(Cn2nc(-c3ccc(C(=O)NCCCN)cc3)ccc2=O)c1 [A130]
CCOC(=O)Nc1cccc(Cn2nc(-c3ccc(CNC(=O)CCN)cc3)ccc2=O)c1 [A131]
CCOC(=O)Nc1cccc(Cn2nc(-c3ccc(C(=O)NCCN)cc3)ccc2=O)c1 [A132]
CCOC(=O)Nc1cccc(Cn2nc(-c3cccc(CNC(=O)CN)c3)ccc2=O)c1 [A133]
CCOC(=O)Nc1cccc(Cn2nc(-c3ccc(CNC(=O)CN)cc3)ccc2=O)c1 [A134]
